Reference: ChEMBL document CHEMBL4354815, “Fibrinolysis Inhibitors: Potential Drugs for the Treatment and Prevention of Bleeding” (J Med Chem, 2020)

Columns and labels:
[1] = molecular target: T1, Complement C1r subcomponent (Homo sapiens, UniProt P00736); experiment: Inhibition of human Complement C1r subcomponent using Val-Ser-Arg-pNA as substrate
T1 sequence (P00736 whole entry): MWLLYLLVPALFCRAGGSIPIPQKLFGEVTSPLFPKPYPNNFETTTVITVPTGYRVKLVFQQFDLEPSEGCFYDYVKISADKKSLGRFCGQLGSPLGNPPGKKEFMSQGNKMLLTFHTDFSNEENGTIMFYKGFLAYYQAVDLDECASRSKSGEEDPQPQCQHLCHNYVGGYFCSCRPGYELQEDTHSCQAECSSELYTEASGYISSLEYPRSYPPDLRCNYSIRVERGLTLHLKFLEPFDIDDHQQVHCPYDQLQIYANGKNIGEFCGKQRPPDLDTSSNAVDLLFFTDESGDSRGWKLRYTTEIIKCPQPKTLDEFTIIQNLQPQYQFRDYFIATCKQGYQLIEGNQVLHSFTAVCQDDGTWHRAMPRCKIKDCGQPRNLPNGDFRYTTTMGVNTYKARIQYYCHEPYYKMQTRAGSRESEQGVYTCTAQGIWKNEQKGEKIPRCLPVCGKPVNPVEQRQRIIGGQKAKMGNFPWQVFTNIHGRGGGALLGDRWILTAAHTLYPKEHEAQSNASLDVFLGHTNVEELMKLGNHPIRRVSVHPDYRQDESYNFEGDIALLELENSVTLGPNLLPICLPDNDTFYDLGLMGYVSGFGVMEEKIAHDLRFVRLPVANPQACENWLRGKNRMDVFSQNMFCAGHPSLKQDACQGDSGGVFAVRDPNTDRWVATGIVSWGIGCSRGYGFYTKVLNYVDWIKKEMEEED

[2] = molecular target: T2, Coagulation factor XII (Homo sapiens, UniProt P00748); experiment: Inhibition of human factor 12a using CHA-Gly-Arg- pNA as substrate
T2 sequence (P00748 whole entry): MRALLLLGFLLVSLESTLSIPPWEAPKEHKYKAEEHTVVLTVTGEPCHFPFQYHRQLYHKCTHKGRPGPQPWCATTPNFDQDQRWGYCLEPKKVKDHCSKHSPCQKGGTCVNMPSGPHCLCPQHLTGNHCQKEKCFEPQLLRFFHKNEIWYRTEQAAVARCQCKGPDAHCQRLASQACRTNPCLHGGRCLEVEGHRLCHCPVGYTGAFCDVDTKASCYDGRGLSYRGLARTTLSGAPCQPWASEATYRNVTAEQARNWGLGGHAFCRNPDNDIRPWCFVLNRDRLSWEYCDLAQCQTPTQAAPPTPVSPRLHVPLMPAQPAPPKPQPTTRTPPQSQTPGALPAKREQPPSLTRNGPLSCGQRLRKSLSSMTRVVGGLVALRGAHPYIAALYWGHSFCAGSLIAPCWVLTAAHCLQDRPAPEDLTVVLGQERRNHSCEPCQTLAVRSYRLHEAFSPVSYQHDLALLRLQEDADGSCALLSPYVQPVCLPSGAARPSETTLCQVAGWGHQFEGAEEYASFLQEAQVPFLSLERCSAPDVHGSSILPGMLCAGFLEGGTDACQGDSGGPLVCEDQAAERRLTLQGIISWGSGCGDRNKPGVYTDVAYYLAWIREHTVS

[3] = Inhibition of human urinary kallikrein using H-D-Val-Leu-Arg-pNA as substrate
[4] = molecular target: T3, Complement C1s subcomponent (Homo sapiens, UniProt P09871); experiment: Inhibition of human Complement C1s subcomponent using Val-Ser-Arg-pNA as substrate
T3 sequence (P09871 whole entry): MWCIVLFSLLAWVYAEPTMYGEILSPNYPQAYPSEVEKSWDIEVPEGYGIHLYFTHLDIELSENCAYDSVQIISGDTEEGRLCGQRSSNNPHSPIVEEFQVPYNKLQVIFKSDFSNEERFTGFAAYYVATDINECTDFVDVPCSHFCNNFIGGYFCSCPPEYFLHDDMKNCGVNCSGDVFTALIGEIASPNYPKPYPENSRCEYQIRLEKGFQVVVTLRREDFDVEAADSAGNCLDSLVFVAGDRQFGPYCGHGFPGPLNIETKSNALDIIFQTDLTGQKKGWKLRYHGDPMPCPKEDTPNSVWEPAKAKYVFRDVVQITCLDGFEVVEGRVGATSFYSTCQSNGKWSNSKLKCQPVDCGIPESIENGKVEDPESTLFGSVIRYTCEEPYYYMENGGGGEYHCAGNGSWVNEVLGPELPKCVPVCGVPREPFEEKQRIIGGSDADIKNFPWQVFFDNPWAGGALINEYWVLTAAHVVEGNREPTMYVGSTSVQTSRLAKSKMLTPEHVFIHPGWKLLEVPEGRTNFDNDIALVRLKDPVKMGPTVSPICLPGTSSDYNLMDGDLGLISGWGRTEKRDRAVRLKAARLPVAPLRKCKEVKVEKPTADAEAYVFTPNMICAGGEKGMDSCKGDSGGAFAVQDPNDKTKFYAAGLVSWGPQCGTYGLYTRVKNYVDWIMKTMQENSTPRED

[5] = molecular target: Coagulation factor X (Homo sapiens, UniProt P00742); experiment: Inhibition of human factor 10a using MeOCO-d-Cha-Gly-Arg-pNA as substrate
[6] = molecular target: Prothrombin (Homo sapiens, UniProt P00734); experiment: Inhibition of human factor 2a using Mes-d-Cha-Gly-Arg-pNA as substrate
[7] = molecular target: Tissue-type plasminogen activator (Homo sapiens, UniProt P00750); experiment: Inhibition of human tissue-type plasminogen activator using Mes-d-Cha- Gly-Arg-pNA as substrate
[8] = molecular target: Vitamin K-dependent protein C (Homo sapiens, UniProt P04070); experiment: Inhibition of human activated protein […] C using H-D-Lys(Cbo)-Pro-Arg-pNA as substrate
[9] = molecular target: T4, Plasminogen (Homo sapiens, UniProt P00747); experiment: Inhibition of human plasmin preincubated for 15 mins followed by MeOSuc-Ala-Phe-Lys-AMC substrate addition and measured after 30 mins by fluorescence method
[10] = molecular target: Coagulation factor XI (Homo sapiens, UniProt P03951); experiment: Inhibition of human factor 11a preincubated for 15 mins followed by Boc-Glu (OBzl) -Ala-Arg-AMC and measured after 30 mins by fluorescence method
[11] = test system: Plasma; experiment: Anti-fibrinolytic activity in 5% human plasma in presence of fibrinogen by spectrophotometric method; format: functional, cell-free
[12] = molecular target: Plasma kallikrein (Homo sapiens, UniProt P03952); experiment: Inhibition of human plasma kallikrein preincubated for 15 mins followed by H-Pro-Phe-Arg-AMC substrate addition and measured after 30 mins by fluorescence method
[13] = molecular target: T4, Plasminogen; experiment: Inhibition of plasmin (unknown origin) assessed as reduction in amidolytic activity using S-2251 as the substrate after 4 mins
[14] = Plasma concentration in human at 100 mg/kg, po measured within 2 to 3 hrs; format: ADME, organism-based; conditions: in vivo
[15] = Drug level in human serum at 100 mg/kg, iv measured after 3 to 4 hrs; format: ADME, organism-based; conditions: in vivo
[16] = Initial serum concentration in human at 100 mg/kg, iv; format: ADME, organism-based
[17] = Half life in human; format: ADME
[18] = molecular target: T4, Plasminogen; experiment: Inhibition of microplasmin (unknown origin) expressed in Pichia pastoris preincubated for 10 mins followed by S2251 substrate addition

Chain of Plasma kallikrein (P03952 20-390 limits assumed): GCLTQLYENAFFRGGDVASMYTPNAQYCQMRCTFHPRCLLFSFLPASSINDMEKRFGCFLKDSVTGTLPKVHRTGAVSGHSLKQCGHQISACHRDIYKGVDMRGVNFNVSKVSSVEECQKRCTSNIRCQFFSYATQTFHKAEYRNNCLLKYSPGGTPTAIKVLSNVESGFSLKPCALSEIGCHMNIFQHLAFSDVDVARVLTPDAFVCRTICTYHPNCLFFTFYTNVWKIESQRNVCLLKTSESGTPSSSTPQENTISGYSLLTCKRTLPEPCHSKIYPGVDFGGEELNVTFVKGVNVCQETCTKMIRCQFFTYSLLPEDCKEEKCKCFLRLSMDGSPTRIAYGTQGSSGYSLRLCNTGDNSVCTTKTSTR
Chain of Plasma kallikrein (P03952 391-638 limits assumed): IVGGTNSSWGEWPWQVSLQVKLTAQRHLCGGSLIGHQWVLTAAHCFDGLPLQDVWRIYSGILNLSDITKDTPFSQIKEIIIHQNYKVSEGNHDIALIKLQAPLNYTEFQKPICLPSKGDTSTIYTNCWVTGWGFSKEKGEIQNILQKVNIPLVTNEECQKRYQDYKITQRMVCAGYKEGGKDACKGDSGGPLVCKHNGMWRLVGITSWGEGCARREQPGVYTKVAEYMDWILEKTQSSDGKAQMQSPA
T4 sequence (P00747 97-580 limits assumed): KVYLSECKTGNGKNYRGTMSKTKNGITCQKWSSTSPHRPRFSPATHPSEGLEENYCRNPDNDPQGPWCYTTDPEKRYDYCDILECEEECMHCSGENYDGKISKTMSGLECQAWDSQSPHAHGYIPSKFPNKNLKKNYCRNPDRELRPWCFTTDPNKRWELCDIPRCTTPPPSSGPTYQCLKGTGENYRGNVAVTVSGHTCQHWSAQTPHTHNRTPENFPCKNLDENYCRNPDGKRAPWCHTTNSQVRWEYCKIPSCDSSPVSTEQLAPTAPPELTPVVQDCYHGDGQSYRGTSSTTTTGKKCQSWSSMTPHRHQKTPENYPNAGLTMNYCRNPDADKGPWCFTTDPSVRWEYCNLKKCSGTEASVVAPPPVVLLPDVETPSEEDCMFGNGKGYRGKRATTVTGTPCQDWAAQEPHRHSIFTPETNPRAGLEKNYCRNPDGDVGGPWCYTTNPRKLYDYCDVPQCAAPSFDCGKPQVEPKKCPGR
T4 sequence (P00747 581-810 limits assumed): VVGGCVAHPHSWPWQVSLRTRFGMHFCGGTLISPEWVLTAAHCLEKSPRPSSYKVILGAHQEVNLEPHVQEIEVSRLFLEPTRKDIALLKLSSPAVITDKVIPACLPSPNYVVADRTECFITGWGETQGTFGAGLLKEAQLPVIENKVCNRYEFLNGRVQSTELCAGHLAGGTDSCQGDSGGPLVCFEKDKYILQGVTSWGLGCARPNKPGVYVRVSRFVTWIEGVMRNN
Chain of Coagulation factor XI (P03951 19-387 limits assumed): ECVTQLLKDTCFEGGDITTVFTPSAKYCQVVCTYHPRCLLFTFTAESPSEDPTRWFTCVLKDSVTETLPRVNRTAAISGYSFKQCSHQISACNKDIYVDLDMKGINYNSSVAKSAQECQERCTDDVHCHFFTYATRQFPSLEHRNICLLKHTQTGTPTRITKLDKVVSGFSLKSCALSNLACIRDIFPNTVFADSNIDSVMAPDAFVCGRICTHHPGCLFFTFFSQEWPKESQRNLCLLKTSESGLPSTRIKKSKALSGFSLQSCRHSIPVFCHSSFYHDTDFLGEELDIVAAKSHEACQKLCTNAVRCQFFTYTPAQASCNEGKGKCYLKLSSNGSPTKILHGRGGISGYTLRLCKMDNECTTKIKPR
Chain of Coagulation factor XI (P03951 388-625 limits assumed): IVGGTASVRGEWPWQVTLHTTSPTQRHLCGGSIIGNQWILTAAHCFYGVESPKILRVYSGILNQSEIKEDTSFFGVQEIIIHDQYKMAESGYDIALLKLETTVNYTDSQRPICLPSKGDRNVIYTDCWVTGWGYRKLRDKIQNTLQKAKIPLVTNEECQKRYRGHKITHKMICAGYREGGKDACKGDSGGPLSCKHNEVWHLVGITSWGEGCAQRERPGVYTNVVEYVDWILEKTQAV
Chain of Tissue-type plasminogen activator (P00750 whole entry): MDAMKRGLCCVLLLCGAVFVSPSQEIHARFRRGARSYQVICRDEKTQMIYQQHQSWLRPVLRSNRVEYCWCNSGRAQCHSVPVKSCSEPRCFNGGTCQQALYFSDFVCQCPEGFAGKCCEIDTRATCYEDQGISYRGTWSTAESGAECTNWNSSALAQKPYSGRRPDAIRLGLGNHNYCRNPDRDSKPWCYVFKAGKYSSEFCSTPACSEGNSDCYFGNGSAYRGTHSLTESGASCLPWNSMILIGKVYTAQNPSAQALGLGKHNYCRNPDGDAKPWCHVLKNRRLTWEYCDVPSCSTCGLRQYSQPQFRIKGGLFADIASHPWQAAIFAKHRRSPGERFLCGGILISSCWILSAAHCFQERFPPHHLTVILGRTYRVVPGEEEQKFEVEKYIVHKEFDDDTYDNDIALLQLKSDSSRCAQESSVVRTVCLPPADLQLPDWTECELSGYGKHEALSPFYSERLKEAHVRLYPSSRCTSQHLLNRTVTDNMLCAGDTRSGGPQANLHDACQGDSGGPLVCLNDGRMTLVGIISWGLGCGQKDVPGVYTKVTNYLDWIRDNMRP
Chain of Vitamin K-dependent protein C (P04070 43-197 limits assumed): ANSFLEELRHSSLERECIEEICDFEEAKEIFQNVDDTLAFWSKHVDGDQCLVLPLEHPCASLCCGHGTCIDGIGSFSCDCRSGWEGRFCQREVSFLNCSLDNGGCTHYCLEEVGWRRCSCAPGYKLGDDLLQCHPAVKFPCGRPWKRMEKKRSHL
Chain of Vitamin K-dependent protein C (P04070 212-461 limits assumed): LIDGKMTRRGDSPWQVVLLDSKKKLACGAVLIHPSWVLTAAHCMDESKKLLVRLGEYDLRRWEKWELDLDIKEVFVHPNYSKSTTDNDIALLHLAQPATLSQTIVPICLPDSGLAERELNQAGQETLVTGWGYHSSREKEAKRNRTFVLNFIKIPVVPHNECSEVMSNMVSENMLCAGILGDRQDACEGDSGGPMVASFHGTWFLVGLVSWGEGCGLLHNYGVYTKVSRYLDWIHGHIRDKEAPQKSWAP
Chain of Coagulation factor X (P00742 41-179 limits assumed): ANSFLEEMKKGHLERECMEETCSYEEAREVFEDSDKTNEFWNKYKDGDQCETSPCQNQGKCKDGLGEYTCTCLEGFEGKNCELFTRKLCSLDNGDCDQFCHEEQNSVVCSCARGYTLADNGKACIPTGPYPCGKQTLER
Chain of Coagulation factor X (P00742 235-488 limits assumed): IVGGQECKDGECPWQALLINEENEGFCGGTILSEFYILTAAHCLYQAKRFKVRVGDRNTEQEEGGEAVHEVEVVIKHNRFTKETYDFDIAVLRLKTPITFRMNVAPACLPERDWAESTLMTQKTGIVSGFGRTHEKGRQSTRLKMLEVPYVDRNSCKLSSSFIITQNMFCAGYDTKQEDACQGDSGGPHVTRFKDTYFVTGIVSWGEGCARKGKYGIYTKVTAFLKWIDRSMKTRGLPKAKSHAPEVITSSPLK

SMILES: N=C(N)c1ccc(CNC(=O)[C@H](CCC2CCNCC2)NC(=O)[C@@H](CCC2CCN(C(=O)C3CC3)CC2)NS(=O)(=O)Cc2ccccc2)cc1
- Ki [1]: > 1000 nM
- Ki [2]: > 1000 nM
- Ki [3]: > 1000 nM
- Ki [4]: > 1000 nM
- Ki [5]: > 1000 nM
- Ki [6]: > 1000 nM
- Ki [7]: > 1000 nM
- Ki [8]: > 1000 nM

SMILES: Cc1nc2[nH]c(C3CC3)nc2cc1-c1ccc(C[C@H](NC(=O)[C@H]2CC[C@H](CN)CC2)C(=O)Nc2cc(Cl)c3[nH]c(=O)[nH]c3c2)cc1
- IC50 [9]: 0.4 nM
- IC50 [10]: 0.7 nM

SMILES: O=c1cc(C2CCNCC2)n2nc3ccc(F)c(-c4ccccc4)c3c2[nH]1
- IC50 [11]: 11 nM

SMILES: CNC(=O)c1ccc(NC(=O)[C@H](Cc2ccc(-c3cc4[nH]cc(C(=O)O)c(=O)c4cc3C)cc2)NC(=O)[C@H]2CC[C@H](CN)CC2)cc1Cl
- IC50 [9]: 1 nM
- IC50 [12]: 8.5 nM
- IC50 [10]: 21.5 nM

SMILES: Cc1nc2nc(C(C)C)[nH]c2cc1-c1ccc(C[C@H](NC(=O)[C@H]2CC[C@H](CN)CC2)C(=O)Nc2ccc(-c3nnc(C(F)(F)C(F)(F)C(=O)O)[nH]3)cc2)cc1
- IC50 [9]: 0.42 nM
- IC50 [12]: 1.7 nM
- IC50 [10]: < 0.13 nM

SMILES: CC[C@@H](C)[C@@H](N)C(=O)N[C@@H](Cc1ccccc1)C(=O)N[C@@H](CCCCN)C(=O)Nc1ccc(C(=O)c2ccccc2)cc1
- IC50 [13]: 69000 nM

SMILES: CC(C)(C)NC(=O)Nc1cccc2nn3c(C4CCNCC4)cc(=O)[nH]c3c12
- IC50 [11]: 9.1 nM

SMILES: Cc1cc2nc(C(C)C)[nH]c2cc1-c1ccc(C[C@H](NC(=O)[C@H]2CC[C@H](CN)CC2)C(=O)Nc2ccc(-c3nnc(C(F)(F)C(F)(F)C(=O)O)[nH]3)cc2)cc1
- IC50 [9]: 0.87 nM
- IC50 [12]: 7.2 nM
- IC50 [10]: 0.34 nM

SMILES: NCCCCCC(=O)O [AMINOCAPROIC ACID]
- Cp [14]: 300 µg/mL
- Drug uptake [15]: 0.035 mg/mL
- C0 [16]: 1500 µg/mL
- half-life [17]: 1.33 h

SMILES: O=C(c1cnn2c(C3CCNCC3)cc(=O)[nH]c12)C1CC1
- IC50 [11]: 8 nM

SMILES: Cc1cc(Cl)c2c(c1)nn1c(C3CCNCC3)cc(=O)[nH]c21
- IC50 [11]: 11 nM

SMILES: CCCc1noc(-c2c(C)nn3c(C4CCNCC4)cc(=O)[nH]c23)n1
- IC50 [11]: 6 nM

SMILES: CCCCCCCCNC(=O)[C@H](Cc1ccc(OCc2ccncc2)cc1)NC(=O)[C@H]1CC[C@H](CN)CC1
- IC50 [18]: 240 nM
